Where two headings read alike, the source gives them in different places.
Tests used:
[1] = In vivo pharmacokinetics using female mice (serum concentration, HPLC); settings: for clearance: read-out: CL (clearance) (converted); for Half-life: read-out: Half-life (converted); for Vd: read-out: Vd (volume of distribution)
[2] = In vitro pharmacokinetics: metabolic stability in liver microsome; type: in vitro ADME; settings: human liver microsome 1 mg/ml, 20 μM compound; for half-life at 20 µM: liver microsomes
Protocol: Metabolic stabilities of the compounds of the Examples were examined by employing microsome samples prepared from the human liver.
Each 20 μM of the compounds were reacted with 1 mg/ml of liver microsome and the half-lives and one-hour stabilities of the compounds were determined.

[3] = system: female mice with osteoporosis induced by ovariectomy; assay: Bone mineral density (BMD) of ovariectomized multiparous mice; type: in vivo; settings: for decrease of BMD: after 8 weeks
Protocol: The effect of Compound Nos. 274 and 388 of the present invention on BMD of female mice with osteoporosis induced by ovariectomy was examined as follows.
Specifically, after anesthetizing female mice used as a control by abdominal administration with a mixture of 10 mg/kg body weight of Ketamin HCl (Ketara) and 0.15 ml/kg body weight of 2% Xylazine HCl (Roupun), the lumbar dorsum of each mouse was shaved bilaterally and the exposed skin was prepared for aseptic surgery by a 10% povidone-iodine scrub followed by a 70% alcohol wipe. A 1-cm incision was made in the central region of the abdomen, and the ovaries were identified with caution not to damage the main organs such as the liver and diaphragm. The ovaries were ligated with a suture thread, and then severed. Thereafter, each organ was relocated to its original position, and the incision was closed with a suture thread in an interrupted pattern. After ovariectomy, the mice were injected with 0.088 mg/kg body weight of gentamicin to prevent infection.
To investigate the change in BMD of the mice, bone mineral density was measured before the ovariectomy and every two weeks for 8 weeks after the ovariectomy using a bone mineral densitometer, XCT 540 Research SA (Stratec, Germany). Specifically, BMD measurement was made at a voxel size of 0.1 mm×0.1 mm, threshold values of 280 mg/cm^2 for cancellous bone and 500 mg/cm^2 for compact bone, and the analysis sites at the proximal tibias were determined by Scout scans (10 mm/sec). BMD was measured at three slices at the determined sites by CT scans (7 mm/sec), and the measurement was performed twice or more at the same site.
Multiparous mice each weighing […] were subjected to ovariectomy in accordance with the method of (3-1). From the 2nd day to 12th week after the ovariectomy, the mice were injected subcutaneously once a day with 0.5 and 1 mg/kg body weight/day of Compound Nos. 274 and 388, respectively. Alternatively, the mice were administered orally with 2.5 and 7.5 mg/kg body weight/day of Compound Nos. 274 and 388. BMD was measured before the ovariectomy, and during the period of the 2nd week to 11th week after the ovariectomy.

rats = assay: In vivo acute toxicity test (LD50); settings: single dose, 2 weeks observation
Protocol: In order to determine the acute toxicities of the compounds prepared in Examples, 6-week old specific pathogen-free (SPF) rats each weighing […] were divided into groups of 10 rat each.
In case of subcutaneous administration, each of the compounds was dissolved in 5% PEG400 solution to a concentration of 20 mg/ml, the resulting solution was serially diluted with 5% PEG400 solution to concentrations of 5, 2.5, 1.25 and 0.625 mg/ml, and the dilutions were subcutaneously injected once to the rats at a dose of 10 ml/kg body weight.
In case of oral administration, each of the compounds was dissolved in soybean oil to a concentration of 180 mg/ml, the resulting solution was serially diluted with soybean oil to concentrations of 80, 20 and 5 mg/ml, and the dilutions were orally administered once to the rats at a dose of 20 ml/kg body weight. […]
During 2 weeks after the administration of the compounds, the death rate, clinical symptoms and weight changes of the rats were observed, and hematological and biochemical tests on blood samples were performed. Then, the rats were sacrificed and the internal organs were visually examined to check any abnormal signs in the organs of chest and abdomen.

| SMILES | AUC (area under the curve of blood concentration versus time) ([1]; I.V.) | clearance ([1]; mouse, serum, iv, I.V.) | Half-life ([1]; mouse, serum, iv, I.V.) | Vd ([1]; mouse, serum, iv, I.V.) | half-life at 20 µM [2] | decrease of BMD ([3]; oral administration 2.5 mg/kg) | decrease of BMD ([3]; oral administration 7.5 mg/kg) | decrease of BMD ([3]; subcutaneous injection 0.5 mg/kg) | decrease of BMD ([3]; subcutaneous injection 1 mg/kg) | LD50 (rats; PO) | AUC (area under the curve of blood concentration versus time) ([1]; Oral) | CL (clearance) ([1]; Oral) | Vd (volume of distribution) ([1]; Oral) | Half-life ([1]; mouse, serum, 15 mg/kg, Oral) | bioavailability ([1]; mouse, serum, 15 mg/kg, oral versus I.V., read-out: Bioavailability) | One-hour stability [2] | increase of BMD ([3]; oral administration (2.5 and 7.5 mg/kg body weight/day), FIGS. 1a and 1b) | change of BMD ([3]; subcutaneous injection once a day (0.5 and 1 mg/kg body weight/day), FIGS. 1a and 1b) | LD50 (rats; SC) |
| --- | --- | --- | --- | --- | --- | --- | --- | --- | --- | --- | --- | --- | --- | --- | --- | --- | --- | --- | --- |
| CO/C=C(/C(=O)OC)c1ccccc1COc1cccc(N2CCCCC2)c1 [Compound No. 388, (E)-methyl-2-[2-((3-(piperidin-1-yl)phenoxy)methyl)phenyl]-3-methoxyacrylate] | 112600 ± 13000 ng·h/mL | 0.0483 mL/min | 7.3 ± 1.2 h | 0.0274 ± 0.002 L/kg | 0.512 h | 10.6% | 10.2% | 5.0% | 6.7% | 110-130 mg/kg body weight | – | – | – | – | – | – | – | – | – |
| CO/C=C(/C(=O)OC)c1ccc(Cl)cc1COc1ccc(OCCOC)cc1 [Compound No. 274, (E)-methyl-2-(2-((4-(2-methoxyethoxy)phenoxy)methyl)-4-chlorophenyl)-3-methoxyacrylate] | 47200 ± 25800 ng·h/mL | 0.238 mL/min | 3.5 ± 2.3 h | 0.0503 ± 0.0098 L/kg | > 3 h | – | – | – | – | 460 mg/kg body weight | 80600 ± 45400 ng·h/mL | 7.5 ± 3.4 mL/h | 0.0434 ± 0.0468 L/kg | 4.2 ± 3.7 h | 8.5% | 72% | 0.8% | no decrease of BMD | 11 mg/kg body weight |
